# Measured values published in publication PMC11375437, “Selective labelling of GBA2 in cells with fluorescent β-D-arabinofuranosyl cyclitol aziridines” (Chemical Science, 2024).
# Target: T1, GBA2 (Homo sapiens, UniProt Q9HCG7)
# T1 sequence (Q9HCG7 1-927): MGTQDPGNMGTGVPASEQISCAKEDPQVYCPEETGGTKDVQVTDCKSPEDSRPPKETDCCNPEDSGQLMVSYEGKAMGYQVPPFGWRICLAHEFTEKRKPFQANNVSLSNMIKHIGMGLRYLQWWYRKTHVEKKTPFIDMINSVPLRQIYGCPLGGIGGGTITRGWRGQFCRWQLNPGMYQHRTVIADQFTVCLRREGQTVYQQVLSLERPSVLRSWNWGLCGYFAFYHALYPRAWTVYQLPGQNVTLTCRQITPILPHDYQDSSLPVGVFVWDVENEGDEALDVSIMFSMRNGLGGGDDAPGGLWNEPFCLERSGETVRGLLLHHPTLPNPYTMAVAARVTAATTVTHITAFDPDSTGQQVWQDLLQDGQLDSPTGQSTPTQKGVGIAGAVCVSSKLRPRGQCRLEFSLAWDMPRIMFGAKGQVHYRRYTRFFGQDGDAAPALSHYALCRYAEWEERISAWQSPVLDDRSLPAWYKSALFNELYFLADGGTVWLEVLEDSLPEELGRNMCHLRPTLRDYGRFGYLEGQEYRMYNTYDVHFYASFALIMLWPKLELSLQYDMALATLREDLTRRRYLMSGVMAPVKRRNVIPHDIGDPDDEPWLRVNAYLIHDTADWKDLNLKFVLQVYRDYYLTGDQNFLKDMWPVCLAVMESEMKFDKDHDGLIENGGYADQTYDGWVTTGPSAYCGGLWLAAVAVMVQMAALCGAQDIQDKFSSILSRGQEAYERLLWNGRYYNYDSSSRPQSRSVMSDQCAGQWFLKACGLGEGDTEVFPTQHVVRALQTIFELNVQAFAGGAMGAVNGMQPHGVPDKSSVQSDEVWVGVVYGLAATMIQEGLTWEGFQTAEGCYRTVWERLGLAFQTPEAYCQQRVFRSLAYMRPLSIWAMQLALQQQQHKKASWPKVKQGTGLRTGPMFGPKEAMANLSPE
# Experiment: In situ labelling of wild-type HEK293T cells, GBA2
# Assay type: cell-based
# Design: endogenous in cells; host or cells: wild-type HEK293T
# Details: wild-type HEK293T intact cells; 24 h incubation
# Description: Importantly, the GBA2 selectivity of β-D-Araf ABPs 3–5 was maintained during in situ labelling of wild-type HEK293T cells (ESI Fig. S9 ^†). […] Even after 24 h incubation, similar results were obtained: ABP 4 selectively labelled GBA2 at 10 nM, with only slight concomitant GBA1 labelling at concentrations higher than 100 nM (ESI Fig. S10 ^†). Selective GBA2 labelling by ABP 3 and 4 finally was also observed in human retinal pigment epithelial-1 cells (Fig. 5C).
# Figure S9. Fluorescent gel images of in situ labelling of wild-type HEK293T cells by β-D-Araf aziridine ABPs 3-5.
# β-D-Araf ABPs were firstly incubated with intact wild-type HEK293T cells for 1 or 2.5 h (1st incubation) and then cells were harvested. […]
# 2.12 Reactivity of β-D-Araf aziridines towards GBA2 orthologue in other species β-D-Araf aziridine ABP 3-5 or ABP 7 was incubated with homogenates of zebrafish (Danio rerio) larvae or mice brain for 1 h at 37 °C. […] The zebrafish homogenates were passed through a desalting column (in the same way as described for the irreversibility evaluation above) to remove interference from biological pigments when scanning at λEX 473 nm and λEM ≥ 510 nm for BODIPY green fluorescence. […]
compound,measurement,value
COc1ccc(C2=[N+]3C(=C(CCCCc4cn(CCCCCCCCN5[C@@H]6[C@H](CO)[C@@H](O)[C@H](O)[C@@H]65)nn4)c4ccc(-c5ccc(OC)cc5)n4[B-]3(F)F)C=C2)cc1 (stereo partly shown) [ABP 4],Concentration at which GBA2 is selectively labelled in situ,10 nM
